Test results from patent US20070249677A1, “Treatment of Osteoarthritis and Dosing Regimen for Arzoxifene” (priority 2004, published 2007).

Assays:
[1] = test system: postmenopausal women with osteopenia; assay: OA biomarkers on a subset of samples from the Phase 2 osteopenia study; format: in vivo, human; settings: no selection for OA
Description: A Phase 2, multicenter, randomized, double-blind, placebo- and raloxifene-controlled study of arzoxifene enrolled 219 postmenopausal women with osteopenia (defined as bone mineral density [BMD] t-score at the lumbar spine and/or femoral neck >−2.5 and ≦−1). The study assessed the effects of arzoxifene compared with raloxifene HCl (60 mg/day) and placebo on biochemical markers of bone metabolism, cardiovascular disease risk markers, and on overall safety.
CTXII was not evaluated as the assay is validated for urine specimens, which were not available.

[2] = Half life of arzoxifene in human patients; format: in vivo
[3] = test system: Hartley albino guinea pigs (spontaneous cartilage degeneration / osteoarthritis); assay: Guinea Pig Spontaneous Osteoarthritis Study; format: in vivo
Description: Hartley albino guinea pigs undergo spontaneous cartilage degeneration, and they have been used as a convenient small animal model system to study osteoarthritis (OA) and have potential physiologic relevance to the OA that spontaneously develops in humans. Disease-related morphologic changes observed in the guinea pigs are similar to the histopathologic alternations in the joints of humans with OA. Other significant similarities between the OA in Hartley guinea pigs and that in humans are also known. Huebner, Collagenase 1 and Collagenase 3 Expression in a Guinea Pig Model of Osteoarthritis, 41 Arthritis Rheum. 877-890 no. 5(May 1998). The Hartley guinea pig spontaneous model can be used to study the effects of Arzoxifene on OA.
Hartley strain guinea pigs, approximately three month old males, are used for the study. (In one study, 5.5 month old males were used, as indicated by FIG. 8). The Hartley albino guinea pigs are provided ad lib access to food (Ca 1.1%, p 0.6%, Vitamin D 3400 IU/kg) and water. The guinea pigs are dosed subcutaneously with Arzoxifene at 0.03, 0.1, 0.3, and/or 0.5 mg/kg/d for about two to four months. The study generally includes 15 guinea pigs per treatment group, except for the baseline, which generally includes 10 guinea pigs. Urine and serum are to be collected at 0, 2, 4, 6, 12, and 16 weeks for biomarker evaluation. The right knee joints are harvested for histology and the left knee joint for surface osteoarthritis scoring.
The effects observed on OA lesion areas by quantitative image analyses are illustrated by the graph in FIG. 3. The Zones of the lesion in the knee joint are illustrated by FIG. 1. Osteoarthritis changes are further evaluated by histologically quantitative analyses on paraffin embedded sections. The severities of joint damage are assessed for the depth of chondrocyte lesion and loss of proteoglycan on a score 0-5 for increasing severity on each third of the cartilage surface (Animla molde of osteoarthritis, A. M. Bendele (J Musculoskel Neuron Interact 2001: 1: 363-376)). Osteophyte development also evaluated by measuring the size.

[4] = Half life of arzoxifene in laboratory animals; format: in vivo
[5] = test system: ovariectomized Sprague-Dawley rats; assay: Intermittent Dosing Analysis of Arzoxifene in Ovariectomized Rats (Prevention Model), femur QCT; format: in vivo, rat; settings: Ovx rats, 1 mg/kg oral
Description: Arzoxifene will be administered using several different dosing intervals for 5 weeks to 6 month-old rats, one week after ovariectomy.
Live phase: A total of about 78 female Sprague-Dawley rats (Harlan Sprague Dawley Inc) are used for this study design. 72 of the rats are ovariectomized (Ovx) at 6 months of age and 6 rats are used as sham-ovariectomized controls. Rats were maintained on a 12 hour light/dark cycle at 22° C. with ad lib access to food (TD 89222 with 0.5% Ca and 0.4% P, Teklad, Madison, Wis.) and water. Sham and Ovx controls are orally administered a vehicle of 20% hydroxy propyl-β-cyclodextrin (Aldrich Chemical Co). Arzoxifene (1 mg/kg) treated rats are dosed daily, every other day (QOD), every third day (Q3D), weekly on Monday (QW), or twice a week on Monday and Friday (M/F), as indicated. Each group contains 6 animals/grp and the treatment duration is about 5 weeks.
Analyses: Intact femora are removed and cleaned of soft-tissue and preserved in 50% ethanol/saline at 4° C. Femora are centered with respect to the QCT gantry (Research M, Stratec). A coronal scout scan of the specimen is generated first in 2 Dimension (2D) and then femora are scanned to measure bone mineral density (BMD, mg/cc), bone mineral content (BMC, mg), and cross-sectional area (mm2).

COc1ccc(-c2sc3cc(O)ccc3c2Oc2ccc(OCCN3CCCCC3)cc2)cc1 [arzoxifene]
COMP biomarker difference between placebo and arzoxifene [1]: modest but significant biomarker differences
human cartilage glycoprotein-39 (YKL-40) biomarker difference between placebo and arzoxifene [1]: modest but significant biomarker differences
half life [2]: longer than one day
OA progression based on OA surface area and osteophyte development ([3]; 0.5 mg/kg/d subcutaneous, one study (FIG. 8, 5.5 month old males)): did not have a statistical effect on OA progression
effect on preventing or slowing the progression of OA ([3]; Hartley guinea pigs, subcutaneous, about two to four months, OA lesion areas by image analysis (FIG. 3)): positive effect on preventing or slowing the progression of OA
OA progress: OA surface area and osteophyte development ([3]; lower doses tested (0.03, 0.1, 0.3 mg/kg/d subcutaneous), FIGS. 4-7): favorable effect on preventing or delaying the OA progress
half life [4]: consistent with a daily dosing regimen
loss of BMD, distal femur metaphysis by QCT ([5]; daily, about 5 weeks (FIG. 9)): prevented
loss of BMD, distal femur metaphysis by QCT ([5]; every other day (QOD), about 5 weeks (FIG. 9)): prevented
loss of BMD, distal femur metaphysis by QCT ([5]; every third day (Q3D), about 5 weeks (FIG. 9)): prevented
loss of BMD, distal femur metaphysis by QCT ([5]; twice a week Monday and Friday (M/F), about 5 weeks (FIG. 9)): prevented
loss of BMD, distal femur metaphysis by QCT ([5]; weekly on Monday (QW), about 5 weeks, QW BMD intermediate between Ovx and Sham and less than Sham (FIG. 9)): only partially efficacious
